The text below walks through data of US11969423B2, “Compounds” (GLAXOSMITHKLINE INTELLECTUAL PROPERTY DEVELOPMENT LIMITED, priority 2017, dated 2024).

Where only a bound is given, the exact number is not on record here.

Test system in one series: not given
To be noted: male, SD, in vivo. How it is done: Male SD rats (n=3/compound/route) were used for single intravenous and oral dose PK studies. Compounds were administered intravenously (infusion over 30 minutes) as a solution (Formulation: 5% DMSO: 20% Encapsine in saline; target dose 1 mg/kg) and orally as suspensions (Formulation: 1% Methyl Cellulose; target dose 5 mg/kg). After dosing, blood samples ([…]) were collected. Sampling times were the following:
0.25, 0.5 (just before end of infusion), 0.58, 0.75, 1, 1.5, 2, 3, 5, 7, and 24 hours; n=3 rats (intravenous infusion administration) 0.25, 0.5, 1, 2, 4, 6, 8, and 24 hours; n=3 rats (oral gavage administration)
All the blood samples were diluted with 25 μL of water and stored at −80° C. until analysis. Rat blood samples were analyzed for each compound using a method upon protein precipitation followed by LC-MS/MS analysis. All pharmacokinetic parameters were obtained by non-compartmental analysis of the different blood concentration-time profiles using WinNonLin Phoenix Version 6.3.
As for `O=C(CCC(F)(F)F)N1CCC(c2cncc(Cl)c2)CC1` [Example 30, 1-(4-(5-chloropyridin-3-yl)piperidin-1-yl)-4,4,4-trifluorobutan-1-one], the “F % (rat, 5 mg/kg)” value is reported as 77%. Consider `O=C(CCC(F)(F)F)N1CCC(c2ccnc(C(F)(F)F)c2)CC1` [Example 18, 4,4,4-trifluoro-1-(4-(2-(trifluoromethyl)pyridin-4-yl)piperidin-1-yl)butan-1-one], for which the “F % (rat, 5 mg/kg)” value worked out at 75%.

In a further series the test system is M. tuberculosis H37Rv-GFP. The class given is cell-based, Mycobacterium tuberculosis. To be noted: read-out: EC50_H37Rv.
`O=C(CCC(F)(F)F)N1CCC(F)(c2cncc(Cl)n2)CC1` [Example 36, 1-(4-(6-chloropyrazin-2-yl)-4-fluoropiperidin-1-yl)-4,4,4-trifluorobutan-1-one]: the EC50 was in the range of 50 to 250 nM. As to `O=C(CCC(F)(F)F)N1CCC(F)(c2cc(C(F)(F)F)ccn2)CC1` [Example 39, 4,4,4-trifluoro-1-[4-fluoro-4-[4-(trifluoromethyl)-2-pyridyl]-1-piperidyl]butan-1-one], the EC50 was 50 to 250 nM. Still for that read-out and setting: next, `O=C(CCC(F)(F)F)N1CCC(F)(c2ccnc(F)c2)CC1` [Example 37, 4,4,4-trifluoro-1-(4-fluoro-4-(2-fluoropyridin-4-yl)piperidin-1-yl)butan-1-one]: < 50 nM; `O=C(CCC(F)(F)F)N1CCC(c2cncc(F)c2)CC1` [Example 3, 4,4,4-trifluoro-1-[4-(5-fluoro-3-pyridyl)-1-piperidyl]butan-1-one]: 50 to 250 nM. For `COc1cncc(C2CCN(C(=O)CCC(F)(F)F)CC2)c1` [Example 12, 4,4,4-trifluoro-1-[4-(5-methoxy-3-pyridyl)-1-piperidyl]butan-1-one], the EC50 is 500 to 1000 nM. The same measure, in the same setting: next, `O=C(CCC(F)(F)F)N1CCC(c2cccnn2)CC1` [Example 19, 4,4,4-trifluoro-1-[4-(pyridazin-3-yl)piperidin-1-yl]butan-1-one]: 1000 to 10000 nM; `O=C(CCC(F)(F)F)N1CCC(F)(c2ccc(F)nc2)CC1` [Example 40]: 50 to 250 nM; `O=C(CCC(F)(F)F)N1CCC(c2cncc(Cl)n2)CC1` [Example 32, 1-(4-(6-chloropyrazin-2-yl)piperidin-1-yl)-4,4,4-trifluorobutan-1-one]: < 50 nM.

Take `O=C(CCC(F)(F)F)N1CCC(c2cncc(Cl)c2)C1` (centres unmarked) [Example 38, 1-(3-(5-chloropyridin-3-yl)pyrrolidin-1-yl)-4,4,4-trifluorobutan-1-one]: the EC50 is < 50 nM. The same measure, in the same setting: next, `Cc1cc(C2CCN(C(=O)CCC(F)(F)F)CC2)ccn1` [Example 22, 4,4,4-trifluoro-1-(4-(2-methylpyridin-4-yl)piperidin-1-yl)butan-1-one]: < 50 nM; `O=C(CCC(F)(F)F)N1CCC(c2cccnc2C(F)(F)F)CC1` [Example 11, 4,4,4-trifluoro-1-[4-[2-(trifluoromethyl)-3-pyridyl]-1-piperidyl]butan-1-one]: 1000 to 10000 nM. Same read-out and setting: next, `O=C(CCC(F)(F)F)N1CCC(c2ncc(F)cc2F)CC1` [Example 13, 1-[4-(3,5-difluoro-2-pyridyl)-1-piperidyl]-4,4,4-trifluoro-butan-1-one]: 50 to 250 nM. On the same count and under the same terms, next, `O=C(CCC(F)(F)F)N1CCC(F)(c2cncc(Cl)c2)CC1` [Example 29, 1-(4-(5-chloropyridin-3-yl)-4-fluoropiperidin-1-yl)-4,4,4-trifluorobutan-1-one]: < 50 nM. Consider `COc1ccc(C2CCN(C(=O)CCC(F)(F)F)CC2)cn1` [Example 10, 4,4,4-trifluoro-1-[4-(6-methoxy-3-pyridyl)-1-piperidyl]butan-1-one], for which the EC50 was 50 to 250 nM. The same measure, in the same setting: next, `O=C(CCC(F)(F)F)N1CCC(c2ccncc2F)CC1` [Example 26, 4,4,4-trifluoro-1-(4-(3-fluoropyridin-4-yl)piperidin-1-yl)butan-1-one]: 50 to 250 nM. As for `O=C(CCC(F)(F)F)N1CCC(c2ccc(F)cn2)CC1` [Example 17, 4,4,4-trifluoro-1-[4-(5-fluoro-2-pyridyl)-1-piperidyl]butan-1-one], the EC50 is < 50 nM.

As for `O=C(CCC(F)(F)F)N1CCC(c2cncc(C(F)(F)F)c2)CC1` [Example 7, 4,4,4-trifluoro-1-[4-[5-(trifluoromethyl)-3-pyridyl]-1-piperidyl]butan-1-one], the EC50 was < 50 nM.

Regarding `O=C(CCC(F)(F)F)N1CCC(c2cccc(C(F)(F)F)n2)CC1` [Example 8, 4,4,4-trifluoro-1-[4-[6-(trifluoromethyl)-2-pyridyl]-1-piperidyl]butan-1-one], the EC50 lay within 50 to 250 nM. Same read-out and setting: next, `O=C(CCC(F)(F)F)N1CCC(F)(c2ccnc(Cl)c2)CC1` [Example 41]: < 50 nM; `O=C(CCC(F)(F)F)N1CCC(c2ccc(C(F)(F)F)nc2)CC1` [Example 5, 4,4,4-trifluoro-1-[4-[6-(trifluoromethyl)-3-pyridyl]-1-piperidyl]butan-1-one]: 500 to 1000 nM; `O=C(CCC(F)(F)F)N1CCC(c2cnccn2)CC1` [Example 1, 4,4,4-trifluoro-1-(4-pyrazin-2-yl-1-piperidyl)butan-1-one]: 500 to 1000 nM. Turning to `O=C(CCC(F)(F)F)N1CCC(c2cncc(Cl)c2)CC1` [Example 30, 1-(4-(5-chloropyridin-3-yl)piperidin-1-yl)-4,4,4-trifluorobutan-1-one], the EC50 was < 50 nM. Turning to `O=C(CCC(F)(F)F)N1CCC(F)(c2ccccn2)CC1` [Example 33, 4,4,4-trifluoro-1-(4-fluoro-4-(pyridin-2-yl)piperidin-1-yl)butan-1-one], the EC50 was 50 to 250 nM.

With `O=C(CCC(F)(F)F)N1CCC(F)(c2ccnc(C(F)(F)F)c2)CC1` [Example 35, 4,4,4-trifluoro-1-(4-fluoro-4-(2-(trifluoromethyl)pyridin-4-yl)piperidin-1-yl)butan-1-one], the EC50 was < 50 nM. In the case of `O=C(CCC(F)(F)F)N1CCC(c2cnc(C(F)(F)F)cn2)CC1` [Example 21, 4,4,4-trifluoro-1-(4-(5-(trifluoromethyl)pyrazin-2-yl)piperidin-1-yl)butan-1-one], the EC50 was 500 to 1000 nM. Still for that read-out and setting: next, `O=C(CCC(F)(F)F)N1CCC(c2cccc(F)n2)CC1` [Example 9, 4,4,4-trifluoro-1-[4-(6-fluoro-2-pyridyl)-1-piperidyl]butan-1-one]: 50 to 250 nM.

As for `O=C(CCC(F)(F)F)N1CCC(F)(c2cncc(C(F)(F)F)c2)CC1` [Example 34, 4,4,4-trifluoro-1-(4-fluoro-4-(5-(trifluoromethyl)pyridin-3-yl)piperidin-1-yl)butan-1-one], the EC50 was < 50 nM. Same read-out and setting: next, `O=C(CCC(F)(F)F)N1CCC(c2cncc(C(F)(F)F)n2)CC1` [Example 24, 4,4,4-trifluoro-1-(4-(6-(trifluoromethyl)pyrazin-2-yl)piperidin-1-yl)butan-1-one]: 50 to 250 nM; `O=C(CCC(F)(F)F)N1CCC(F)(c2cccnc2)CC1` [Example 2, 4,4,4-trifluoro-1-[4-fluoro-4-(3-pyridyl)-1-piperidyl]butan-1-one]: < 50 nM. The same measure, in the same setting: next, `O=C(CCC(F)(F)F)N1CCC(c2ccnc(C(F)(F)F)c2)CC1` [Example 18, 4,4,4-trifluoro-1-(4-(2-(trifluoromethyl)pyridin-4-yl)piperidin-1-yl)butan-1-one]: < 50 nM; `O=C(CCCC(F)(F)F)N1CCC(c2cncc(Cl)c2)CC1` [Example 31, 1-(4-(5-chloropyridin-3-yl)piperidin-1-yl)-5,5,5-trifluoropentan-1-one]: 50 to 250 nM; `O=C(CCC(F)(F)F)N1CCC(c2cc(C(F)(F)F)ccn2)CC1` [Example 6, 4,4,4-trifluoro-1-[4-[4-(trifluoromethyl)-2-pyridyl]-1-piperidyl]butan-1-one]: < 50 nM.

For `O=C(CCC(F)(F)F)N1CCC(c2nccc(C(F)(F)F)n2)CC1` [Example 15], the EC50 was in the range of 1000 to 10000 nM.

Take `O=C(CCC(F)(F)F)N1CCC(c2cncnc2)CC1` [Example 16]: the EC50 was in the range of 1000 to 10000 nM. Same read-out and setting: next, `O=C(CCC(F)(F)F)N1CCC(c2ncccn2)CC1` [Example 28, 4,4,4-trifluoro-1-[4-(pyrimidin-2-yl)piperidin-1-yl]butan-1-one]: 1000 to 10000 nM; `O=C(CCC(F)(F)F)N1CCC(c2cnc(F)c(F)c2)CC1` [Example 23, 1-(4-(5,6-difluoropyridin-3-yl)piperidin-1-yl)-4,4,4-trifluorobutan-1-one]: < 50 nM. Still for that read-out and setting: next, `O=C(CCC(F)(F)F)N1CCC(c2ccc(F)nc2F)CC1` [Example 14, 1-[4-(2,6-difluoro-3-pyridyl)-1-piperidyl]-4,4,4-trifluoro-butan-1-one]: 50 to 250 nM; `O=C(CCC(F)(F)F)N1CCC(c2ccnc(F)c2)CC1` [Example 20, 4,4,4-trifluoro-1-(4-(2-fluoropyridin-4-yl)piperidin-1-yl)butan-1-one]: < 50 nM; `O=C(CCC(F)(F)F)N1CCC(c2ccc(F)nc2)CC1` [Example 4, 4,4,4-trifluoro-1-[4-(6-fluoro-3-pyridyl)-1-piperidyl]butan-1-one]: 50 to 250 nM. On the same count and under the same terms, next, `O=C(CCC(F)(F)F)N1CCC(c2ccnc(Cl)c2)CC1` [Example 25, 1-(4-(2-chloropyridin-4-yl)piperidin-1-yl)-4,4,4-trifluorobutan-1-one]: < 50 nM. `O=C(CCC(F)(F)F)N1CCC(c2cccc(Cl)n2)CC1` [Example 27, 1-(4-(6-chloropyridin-2-yl)piperidin-1-yl)-4,4,4-trifluorobutan-1-one]: the EC50 lay in the range of 50 to 250 nM.

Another series deals with PPAR marker. The settings on record: male, Swiss (Crl:CD-1(ICR)), mouse.
In the case of `O=C(CCC(F)(F)F)N1CCC(c2cncc(Cl)c2)CC1` [Example 30, 1-(4-(5-chloropyridin-3-yl)piperidin-1-yl)-4,4,4-trifluorobutan-1-one], the “In vivo PPAR marker fold increase” value is reported as <2 fold.

As for `O=C(CCC(F)(F)F)N1CCC(c2ccnc(C(F)(F)F)c2)CC1` [Example 18, 4,4,4-trifluoro-1-(4-(2-(trifluoromethyl)pyridin-4-yl)piperidin-1-yl)butan-1-one], the “In vivo PPAR marker fold increase” value was <6 fold.

Test system in the next series: not given
The settings on record: male, Swiss (Crl:CD-1(ICR)), mouse, in vivo.
In the case of `O=C(CCC(F)(F)F)N1CCC(c2cncc(Cl)c2)CC1` [Example 30, 1-(4-(5-chloropyridin-3-yl)piperidin-1-yl)-4,4,4-trifluorobutan-1-one], the “Mice liver hypertrophy (%)” value is recorded as 2%. With `O=C(CCC(F)(F)F)N1CCC(c2ccnc(C(F)(F)F)c2)CC1` [Example 18, 4,4,4-trifluoro-1-(4-(2-(trifluoromethyl)pyridin-4-yl)piperidin-1-yl)butan-1-one], the “Mice liver hypertrophy (%)” value was 6%.
